Values quoted from earlier work in patent publication US20220362213A1, “METHODS FOR TREATING POST ENDOSCOPIC RETROGRADE CHOLANGIOPANCREATOGRAPHY PANCREATITIS” (priority 2021, published 2022).

Assays:
[1] = tested on: post-ERCP pancreatitis; conditions: single-dose rectal; meta-analysis of preliminary studies
[2] = tested on: post-ERCP pancreatitis; conditions: for preventing post-ERCP pancreatitis: two large controlled trials, pharmacologic prevention in high-risk patients

Row | Molecule | protective effects in post-ERCP pancreatitis [1] | preventing post-ERCP pancreatitis [2] | other results
1 | O=C(O)Cc1ccccc1Nc1c(Cl)cccc1Cl [diclofenac] | benefit |  | 
2 | COc1ccc2c(c1)c(CC(=O)O)c(C)n2C(=O)c1ccc(Cl)cc1 [indomethacin] | benefit |  | 
3 | C[C@@H](O)[C@@H]1NC(=O)[C@H](CCCCN)NC(=O)[C@@H](Cc2c[nH]c3ccccc23)NC(=O)[C@H](Cc2ccccc2)NC(=O)[C@@H](NC(=O)[C@H](N)Cc2ccccc2)CSSC[C@@H](C(=O)N[C@H](CO)[C@@H](C)O)NC1=O [octreotide] |  | ineffective | hyperamylasemia ([2]; after ERCP): reduces hyperamylasemia; clinical course of post-ERCP pancreatitis ([2]; human, in vivo): has not been shown to alter the clinical course
4 | secretin |  |  | incidence of post-ERCP pancreatitis ([2]; retrospective review of 4833 ERCP procedures, patients without pancreas divisum): might decrease the incidence
5 | CCOC(=O)c1ccc(OC(=O)CCCCCNC(=N)N)cc1 [gabexate] |  | ineffective | reducing the frequency of post-ERCP pancreatitis ([2]; prophylaxis, meta-analysis of 28 clinical trials): effective
